Paper PMC2631127 (Acta Crystallographica Section D: Biological Crystallography, 2008)

How the values were obtained:
[1] = biological target: T4moF, bacterial oxidoreductase (Ectopseudomonas mendocina, UniProt Q03304); test: reduction of MRF followed at […] nm, anaerobic; type: biochemical; settings: electron acceptor MRF; 4 nM T4moF; 1 mM NADH
[2] = biological target: human homolog of mouse Rieske-type ferredoxin (HRF) (Homo sapiens, UniProt Q8TAC1); test: optical absorption spectrum of purified protein; type: binding; settings: bound as purified
Sequence of human homolog of mouse Rieske-type ferredoxin (HRF) (Q8TAC1 2-157 limits assumed): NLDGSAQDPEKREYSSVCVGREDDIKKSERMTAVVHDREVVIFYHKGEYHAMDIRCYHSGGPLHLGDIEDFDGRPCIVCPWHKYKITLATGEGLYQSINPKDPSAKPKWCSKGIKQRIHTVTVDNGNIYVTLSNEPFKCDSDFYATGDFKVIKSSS

Sequence of T4moF, bacterial oxidoreductase (Q03304 whole entry): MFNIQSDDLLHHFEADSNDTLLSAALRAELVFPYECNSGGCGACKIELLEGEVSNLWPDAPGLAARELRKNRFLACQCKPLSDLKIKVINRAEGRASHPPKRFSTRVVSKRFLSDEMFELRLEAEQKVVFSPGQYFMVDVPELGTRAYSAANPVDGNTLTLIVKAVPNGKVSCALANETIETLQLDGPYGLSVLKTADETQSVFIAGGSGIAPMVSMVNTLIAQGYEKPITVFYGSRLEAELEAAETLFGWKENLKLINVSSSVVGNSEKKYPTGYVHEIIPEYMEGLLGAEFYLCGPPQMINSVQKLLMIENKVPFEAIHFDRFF

Question: For `NC(=O)C1=CN([C@@H]2O[C@H](COP(=O)(O)OP(=O)(O)OC[C@H]3O[C@@H](n4cnc5c(N)ncnc54)[C@H](O)[C@@H]3O)[C@@H](O)[C@H]2O)C=CC1` [NADH], which “reduction of MRF followed at 460 nm, anaerobic” value [1] is on record?
Answer: Its value is “measured at multiple MRF concentrations in the presence of saturating NADH”.

Question: With `[S]1[Fe][S][Fe]1` [[2Fe–2S] cluster] as the compound, how does the “optical absorption spectrum of purified protein” value [2] read?
Answer: The value was “Expression and purification of HRF following the same protocol resulted in similar purity and [2Fe–2S]”.
